How the values were obtained:
[1] = test system: mouse ovarian tumor M5076; experiment: Tumor weight of solid tumor of mouse ovarian tumor in BDF1 mice; type: in vivo; conditions: for Tumor weight (day 1 = 100): Table 9, cisplatin 5 mg/Kg, hEGF, [Leu^21 ]-hEGF or hEGF-II 100 μg/Kg subcutaneous, average ± standard error
Description: BDF1 male mice were employed. The feeding conditions were the same as in Experimental Example 1.
Mouse ovarian tumor M5076 was transplanted subcutaneously at the axialla of mouse in 1-2×10^6 cells per mouse. 12 days after transplantation, the size of tumor was measured according to the same method as in Experimental Example 1 (Colon 26) and the tumor weight was calculated.
The grouping operation on initiation of Experiments was conducted in the same manner as in Experimental Example 1. The compounds were administered in the same manner as in Experimental Example 9.
The experiment was carried out in the samme manner as in Experimental Examples 1, 7 and as in Experimental Example 17 for others.

[2] = test system: Colon adenocarcinoma 38 (mouse colon adenocarcinoma); experiment: Tumor weight of transplanted Colon adenocarcinoma 38 in C57BL/6 mice; type: in vivo; conditions: for tumor growth inhibiting effect, same experiment as Experimental Example 19: used in place of 5-FU in combination with FGF; for antitumor effect of (a) + (b) (quantity not headed; method of Experimental Example 4): Table 21
Description: Colon adenocarcinoma 38 (mouse colon adenocarcinoma) was minced into pieces and about 0.1 to 0.2 ml thereof was transplanted subcutaneously on the right side of mouse abdomen by a cell transplanting needle (trocker). Eleven days after transplantation, the size of tumor, namely longer diameter (a mm) and shorter diameter (b mm) of tumor were measured and the tumor weight was calculated according to the formula shown below [Instruction 14 (NCI) 1980].
Tumor weight (mg)=ab^2 /2
In the Table, days indicate the experimental days with the day of compound administration being as the day 1, and the tumor weight immediately before administration of compound of day 1 is made 100. The respective values show the average value ± standard error of case numbers of 10 to 20, in the Table, the marks of (*), * and *** indicate the statistical significance difference of the combined administration group relative to the 5-FU single administration group (the definition of P is as defined above).

[3] = Table 12, day 4 after compound administration, weight before administration = 100, Tegafur 400, 5-FU 150, Mitomycin-C 5, Cisplatin 5 mg/Kg, hIGF-II 50 μg/Kg subcutaneous, average ± standard error of 8-10 mice
[4] = Table 13, same method as Experimental Example 20 (day 4), Tegafur 400, Mitomycin-C 5, Adriamycin 10, Cisplatin 5 mg/Kg, Insulin 50 m μg/Kg subcutaneous
[5] = Table 14, hTGFα 100 μg/10 ml/Kg with 5-FU, Tegafur, Mitomycin-C, Adriamycin or Cisplatin, as described for Table 12
[6] = Table 15, day 4 after compound administration, hTGFβ and hEGF 100 μg/Kg with each compound having antitumor action
[7] = (a) Adriamycin, Mixed injection
[8] = (a) Adriamycin, Separate injection
[9] = (a) Cisplatin, Separate injection
[10] = (a) Tegafur, Separate injection

Molecule	Tumor weight ratio(%) [2, 3] [%]	Tumor weight ratio(%) [2, 4] [%]	Tumor weight ratio(%) [2, 5] [%]	Tumor weight ratio(%) [2, 6] [%]	tumor growth inhibiting effect, same experiment as Experimental Example 19 [2]	antitumor effect of (a) + (b) (quantity not headed; method of Experimental Example 4) [2, 7]	antitumor effect of (a) + (b) (quantity not headed; method of Experimental Example 4) [2, 8]	antitumor effect of (a) + (b) (quantity not headed; method of Experimental Example 4) ([2]; (a) Cisplatin, Mixed injection)	antitumor effect of (a) + (b) (quantity not headed; method of Experimental Example 4) [2, 9]	antitumor effect of (a) + (b) (quantity not headed; method of Experimental Example 4) ([2]; (a) Tegafur, Mixed injection)	antitumor effect of (a) + (b) (quantity not headed; method of Experimental Example 4) [2, 10]	also measured
N.N.[Cl][Pt][Cl] [Cisplatin, cisplatin]	145.6 ± 9.1	145.6 ± 9.1	145.6 ± 9.1	139.8 ± 9.9	the same results							Tumor weight (day 1 = 100) ([1]; day 2): 126.4 ± 9.0; Tumor weight (day 1 = 100) ([1]; day 3): 125.49 ± 8.3; Tumor weight (day 1 = 100) ([1]; day 4): 136.9 ± 5.2; Tumor weight (day 1 = 100) ([1]; day 5): 143.6 ± 14.5; Tumor weight (day 1 = 100) ([1]; day 6): 192.0 ± 20.6
O=P1(N(CCCl)CCCl)NCCCO1 (stereo not shown) [Cyclophosphamide, cyclophosphamide]				90.6 ± 7.6	the same results							Tumor weight (day 1 = 100) ([2]; Table 7, day 2, cyclophosphamide 200 mg/Kg, hEGF 100 μg/Kg subcutaneous on day 1 and day 3, average ± standard error of 8 mice): 145.2 ± 18.2; Tumor weight (day 1 = 100) ([2]; Table 7, day 3, cyclophosphamide 200 mg/Kg, hEGF 100 μg/Kg subcutaneous on day 1 and day 3, average ± standard error of 8 mice): 147.6 ± 13.7; Tumor weight (day 1 = 100) ([2]; Table 7, day 4, cyclophosphamide 200 mg/Kg, hEGF 100 μg/Kg subcutaneous on day 1 and day 3, average ± standard error of 8 mice): 102.4 ± 8.6; Tumor weight (day 1 = 100) ([2]; Table 7, day 5, cyclophosphamide 200 mg/Kg, hEGF 100 μg/Kg subcutaneous on day 1 and day 3, average ± standard error of 8 mice): 92.2 ± 5.1; Tumor weight (day 1 = 100) ([2]; Table 7, day 6, cyclophosphamide 200 mg/Kg, hEGF 100 μg/Kg subcutaneous on day 1 and day 3, average ± standard error of 8 mice): 108.5 ± 19.6; Tumor weight (day 1 = 100) ([2]; Table 7, day 7, cyclophosphamide 200 mg/Kg, hEGF 100 μg/Kg subcutaneous on day 1 and day 3, average ± standard error of 8 mice): 110.9 ± 21.3
CO[C@@]12[C@H](COC(N)=O)C3=C(C(=O)C(C)=C(N)C3=O)N1C[C@@H]1N[C@@H]12 [MMC, mitomycin C]	95.8 ± 5.5	95.8 ± 5.5	95.8 ± 5.5	101.1 ± 8.3	the same results							Tumor weight (day 1 = 100) ([2]; Table 8, day 2, MMC 5 mg/Kg, hEGF, hEGF-II or [Leu^21 ]-hEGF 100 μg/Kg subcutaneous on day 1 and day 5, average ± standard error of 6 mice): 130.8 ± 8.5; Tumor weight (day 1 = 100) ([2]; Table 8, day 3, MMC 5 mg/Kg, hEGF, hEGF-II or [Leu^21 ]-hEGF 100 μg/Kg subcutaneous on day 1 and day 5, average ± standard error of 6 mice): 106.1 ± 9.4; Tumor weight (day 1 = 100) ([2]; Table 8, day 4, MMC 5 mg/Kg, hEGF, hEGF-II or [Leu^21 ]-hEGF 100 μg/Kg subcutaneous on day 1 and day 5, average ± standard error of 6 mice): 95.8 ± 5.5; Tumor weight (day 1 = 100) ([2]; Table 8, day 5, MMC 5 mg/Kg, hEGF, hEGF-II or [Leu^21 ]-hEGF 100 μg/Kg subcutaneous on day 1 and day 5, average ± standard error of 6 mice): 98.6 ± 3.9; Tumor weight (day 1 = 100) ([2]; Table 8, day 6, MMC 5 mg/Kg, hEGF, hEGF-II or [Leu^21 ]-hEGF 100 μg/Kg subcutaneous on day 1 and day 5, average ± standard error of 6 mice): 160.7 ± 10.9; Tumor weight (day 1 = 100) ([2]; Table 8, day 7, MMC 5 mg/Kg, hEGF, hEGF-II or [Leu^21 ]-hEGF 100 μg/Kg subcutaneous on day 1 and day 5, average ± standard error of 6 mice): 150.8 ± 15.9; Tumor weight (day 1 = 100) ([2]; Table 8, day 8, MMC 5 mg/Kg, hEGF, hEGF-II or [Leu^21 ]-hEGF 100 μg/Kg subcutaneous on day 1 and day 5, average ± standard error of 6 mice): 263.6 ± 30.8; Tumor weight (day 1 = 100) ([2]; Table 8, day 9, MMC 5 mg/Kg, hEGF, hEGF-II or [Leu^21 ]-hEGF 100 μg/Kg subcutaneous on day 1 and day 5, average ± standard error of 6 mice): 308.7 ± 54.0
O=c1[nH]c(=O)n(C2CCCO2)cc1F (stereo not shown) [Tegafur, 1-(2-tetrahydrofuryl)-5-fluorouracil]	95.2 ± 15.4	95.2 ± 15.4	95.2 ± 15.4	118.0 ± 9.8								Tumor weight (day 1 = 100) ([2]; Table 6, day 2, Tegafur 400 mg/Kg, hEGF 100 μg/Kg subcutaneous on day 1 and day 4, average ± standard error of 7 mice): 89.0 ± 10.5; Tumor weight (day 1 = 100) ([2]; Table 6, day 3, Tegafur 400 mg/Kg, hEGF 100 μg/Kg subcutaneous on day 1 and day 4, average ± standard error of 7 mice): 102.1 ± 13.5; Tumor weight (day 1 = 100) ([2]; Table 6, day 4, Tegafur 400 mg/Kg, hEGF 100 μg/Kg subcutaneous on day 1 and day 4, average ± standard error of 7 mice): 105.5 ± 18.4; Tumor weight (day 1 = 100) ([2]; Table 6, day 5, Tegafur 400 mg/Kg, hEGF 100 μg/Kg subcutaneous on day 1 and day 4, average ± standard error of 7 mice): 104.2 ± 22.6; Tumor weight (day 1 = 100) ([2]; Table 6, day 6, Tegafur 400 mg/Kg, hEGF 100 μg/Kg subcutaneous on day 1 and day 4, average ± standard error of 7 mice): 94.5 ± 16.9; Tumor weight (day 1 = 100) ([2]; Table 6, day 7, Tegafur 400 mg/Kg, hEGF 100 μg/Kg subcutaneous on day 1 and day 4, average ± standard error of 7 mice): 131.4 ± 23.3; Tumor weight (day 1 = 100) ([2]; Table 6, day 8, Tegafur 400 mg/Kg, hEGF 100 μg/Kg subcutaneous on day 1 and day 4, average ± standard error of 7 mice): 143.7 ± 20.6; Tumor weight ratio(%) ([2]; Table 16, day 4 after administration, Tegafur in place of 5-FU, FGF as in Experimental Example 19): 103.1 ± 13.1%; Tumor weight ratio(%) ([2]; Table 17, day 4 after compound administration, Tegafur 400 mg/Kg, hEGF, hEGF-II, [Leu^21 ]-hEGF each 100 μg/Kg, RA 30 mg/Kg subcutaneous): 90.6 ± 11.5%
Insulin						110.2	121.1	105.6	110.3	58.9	48.1	
TGFα: human transforming growth factor α						98.4	92.6	80.4	80.1	34.3	40.6	
[Leu^21 ]-hEGF: derivative of hEGF with the 21st methionine from the N-terminal substituted with leucine (NSDSECPLSHDGYCLHDGVCLYIEALDKYACNCVVGYIGERCQYRDLKWWELR; not fully specified; Epidermal growth factor; UniProt P01133 971-1023, looked up, variant M21L)						99.6	97.8	90.4	100.1	48.1	50.3	antitumor effect potentiation, same experiment as Experimental Example 17 ([1]; used together with mytomycin C in place of cisplatin): the same results; tumor cell growth inhibition, same experiment as Experimental Example 4 ([2]; used in place of hEGF in combination with 5-FU): the same results; tumor cell growth inhibition, same experiment as Experimental Example 14 ([2]; used in place of hEGF in combination with Tegafur): the same results; antitumor action potentiating effect, same experiment as Experimental Example 9 ([2]; used in place of hEGF in combination with cisplatin): the same results; tumor cell growth inhibiting effect, same experiment as Experimental Example 15 ([2]; used in place of hEGF in combination with cyclophosphamide): the same results

— patent US4863902A, “Treatment of cancer” (Wakunaga Seiyaku Kabushiki Kaisha, priority 1985, dated 1989)
